Results: US6472541B2, “Protecting groups with increased photosensitivities” (The Regents of the University of California, priority 1998, dated 2002)
Structures can show the parent of a compound that is named as a salt.

Key:
[1] = One-photon photolysis quantum efficiency (UV irradiation, HPLC analysis); format: physicochemical
Experimental: (§1) The electronic absorption and emission properties of the compounds were measured and the stability of the compounds toward hydrolysis in the dark was tested. Stability in the dark can be used to help identify photolabile protecting groups that can be used in a variety of different conditions. Specifically, the quantum efficiencies for one-photon excitation and rates of hydrolysis in the dark were determined.
[…] The duration of each irradiation period was controlled by an electronic shutter. Between each irradiation, a small aliquot (10 μL) of the solution was removed for analysis by reversed phase HPLC with a Betabasic-18 column eluted with a isocratic mixture of 60% acetonitrile and water containing 0.1% trifluoracetic acid at a flow rate of 0.8 mL/min, using absorbance detection at 325 nm. […] […] Quantum efficiencies were calculated as (Iσt90%)^−1, where I is the irradiation intensity in einsteins (cm^−2s^−1), σ is the decadic extinction coefficient in cm^2mol^−1 (10^3 times ε, the usual extinction coefficient in M^−1cm^−1), and t90% is the irradiation time in seconds for 90% conversion to product. […] Dark hydrolysis rates were measured similarly except without illumination.

[2] = Electronic absorption and emission properties; format: physicochemical; conditions: for λmax Wavelength of peak absorbance: pH 7.2; for ε Molar absorptivity at absorbance peak: pH 7.2, at absorbance peak
Experimental: Generally, chemicals and solvents were used directly as received unless otherwise noted. Acetonitrile, chloroform and dichloromethane were dried over 4A molecular sieves. Proton magnetic resonance spectra (^1H NMR) were recorded on a Gemini 200 MHz spectrometer (Varian; Palo Alto, Calif.) and reported in ppm (δ) downfield from tetramethylsilane with residual solvent peaks as the internal standards. Ultraviolet spectra were recorded on a Cary 3E UV-Visible spectrophotometer (Varian, Palo Alto, Calif., USA). Fluorescence spectra were recorded on a Fluorolog spectrofluorometer (SPEX; Edison, N.J., USA). Mass spectra were recorded on a electrospray mass spectrometer (5989B, Hewlett-Packard; Palo Alto, Calif., USA). Thin layer chromatography (TLC) and column chromatography were performed on precoated silica gel 60F-254 plates and 230-400 mesh silica gel 60 respectively (EM Separations; Gibbstown, N.J., USA). All manipulations of compounds sensitive to near ultraviolet light were performed under an orange safety lamp.
as §1

rat cortical neurons = assay: One-photon UV uncaging of caged glutamate on brain slices, neuronal responses; format: cell-based; conditions: one-photon UV uncaging at 365 nm, 10 mW, average
Experimental: The photolabile protecting groups can be uncaged by one-photon or two-photon photolysis. One-photon ultraviolet uncaging experiments were carried out on brain slices. In particular, compound 7 was used to deliver glutamate to rat cortical neurons. One-photon UV uncaging of caged glutamate compound at 365 nm released the glutamate. Neuronal responses were measured after directly stimulating cells as described in Sawatari and Callaway, Nature 380:442-446 (1996). The cells were exposed to compound 7 (Bhc-Glu) or γ-(α-carboxy-2-nitrobenzyl)glutamate, trifluoroacetate salt (compound 1, CNB-glutamate). The one-photon uncaging was carried out as described in FIG. 1 depicts the lower power needed to uncage compound 7 (Bhc-Glu) in the neuron sample in comparison to compound 1 (alpha-carboxy nitrobenzyl-caged glutamate, CNB-Glu). At 10 mW the compound 7-stimulated neurons respond, on average, at amplitudes 80% of their maximum, while compound 1-stimulated neurons are responding at less than 20% of their maximum amplitudes.

[3] = Hydrolysis in the dark (dark stability); format: physicochemical; conditions: buffered solution, read-out: t0.5 Half-life for hydrolysis in the dark (converted)
Experimental: as §1
The photolysis quantum efficiencies for one-photon excitation were determined by irradiating a buffered solution of the substrate with 365 nm ultraviolet light from a B-100 mercury lamp (Spectronics Corp., Westbury, N.Y.). The duration of each irradiation period was controlled by an electronic shutter. Between each irradiation, a small aliquot (10 μL) of the solution was removed for analysis by reversed phase HPLC with a Betabasic-18 column eluted with a isocratic mixture of 60% acetonitrile and water containing 0.1% trifluoracetic acid at a flow rate of 0.8 mL/min, using absorbance detection at 325 nm. Optical densities at 365 nm were maintained near 0.1 so that inner-filtering of the irradiation could be neglected. […] Quantum efficiencies were calculated as (Iσt90%)^−1, where I is the irradiation intensity in einsteins (cm^−2s^−1), σ is the decadic extinction coefficient in cm^2mol^−1 (10^3 times ε, the usual extinction coefficient in M^−1cm^−1), and t90% is the irradiation time in seconds for 90% conversion to product. The total UV intensity, I, was measured by chemical actinometry with 6 mM potassium ferrioxalate in the same setup. Dark hydrolysis rates were measured similarly except without illumination.

[4] = In vitro measurements of two-photon uncaging and fluorescence cross-sections; format: physicochemical; conditions: pH 7.2
Experimental: Measurements of cross-sections for two-photon uncaging were carried out in microcuvettes with cylindrical cavities having a 1 cm path length and 20 μL total volume (Type 26F, Starna). Femtosecond infrared pulses from a mode-locked titanium-sapphire laser (Spectra-Physics TSUNAMI, pumped by a Spectra-Physics MILLENNIUM) were aimed along the axis of the sample chamber and focused in its center with a 25 mm focal length lens (06LXP003/076, Melles Griot, Irvine, Calif.) optimized for infrared lasers. The pulse parameters were estimated by replacing the caged compound by a solution of fluorescein, a reference compound of known fluorescence quantum yield Qf2 (0.9) and two-photon absorbance cross-section δaF (30 and 38 GM at 740 and 800 nm respectively). The time-averaged fluorescence <F(t)>collected by the detector is given by equation (1)
<F(t)>=0.5φQf2δaFCF<I0^2(t)>∫S^2(r)dV (1)
where φ is the collection efficiency of the detector, CF is the concentration of fluorescein, <I0^2(t)> is the mean squared light intensity, S(r) is a unitless spatial distribution function, and the integral is over the volume of the microcuvette. The fluorescence emitted at right angles to the laser beam was measured through a 535 nm bandpass filter in front of a silicon photodiode radiometer (IL1700, International Light). The collection efficiency φ was estimated as Ay/(4πR^2n^2), where A is the area of the detector (0.38 cm^2), y is the fraction of the integrated emission spectrum transmitted by the interference filter (0.377), measured separately in a spectrofluorometer, R is the distance from the center of the cuvette to the detector (3.83 cm), and n is the refractive index of water (1.333). For photolysis of a caged compound or substrate, the number NP of molecules of product formed per unit time is (eq. 2):
NP=0.5Qu2δaSCS<I0^2(t)>∫S^2(r)dV (2)
where Qu2, δaS, and CS are the quantum efficiency for two-photon uncaging, absorbance cross-section, and concentration of the substrate, respectively. NP was measured by HPLC sampling of the microcuvette as for the one-photon photolysis. The uncaging action cross-section δu2 (≡Qu2δaS) can therefore be estimated by (eq. 3): [formula]
Similarly, when the substrate is also fluorescent, its two-photon fluorescence action cross-section δf2S (≡Qf2SδaS) can be estimated as (eq. 4): [formula]
Here the subscripts S and F distinguish values for the substrate and for the fluorescein reference. If one assumes that one- and two-photon quantum efficiencies are the same, then δu2/Qu1 and δf2S/Qf1S should both equal δaS. In fact, the former values are typically about twice the latter. All of them are directly proportional to the assumed value of Qf2 for fluorescein.

[5] = Mechanism of photolysis (triplet state lifetime); format: physicochemical
Description: The halogenated coumarin derivatives have good dark stability, and high one-photon and two-photon uncaging efficiencies. Without being bound to any particular theory, halogenation of the coumarin may have increased the two-photon cross-sections by lowering the pKa of the chromophore below physiological pH and promoting formation of the more strongly absorbing anion. Also, the heavy atoms may promote intersystem crossing to the triplet, which is believed to be the photochemically reactive state. […] The mechanism of photolysis of compound 7 and compound 23 indicate that the solvolysis occurs via the triplet state with a lifetime of about 1 μs. […] Although compound 6 had the highest cross-section, its photolysis was complicated by multiple secondary photoproducts. The monobromo compound (compound 5) was much more tractable and easily formed caged compounds.

[6] = 515 nm rather than 365 nm (footnote g)

SMILES | Qu1 Quantum efficiency for uncaging with one-photon excitation at 365 nm [1] | εQu1 One-photon action cross section (product of molar absorptivity and photolysis quantum yield) at 365 nm [1] | ε Molar Absorptivity at 365 nm [2] | Neuron response amplitude, percent of maximum amplitude (rat cortical neurons) | ε Molar Absorptivity at 400 nm [2] | λmax Wavelength of peak absorbance [2] | ε Molar absorptivity at absorbance peak [2] | Qf1 Quantum efficiency for fluorescence with one-photon excitation [2] | λem [2] | half-life [3] | δf (740 nm) fluorescence action cross-section for two-photon excitation [4] | δu (740 nm) uncaging action cross-section for two-photon excitation [4] | δf (800 nm) fluorescence action cross-section for two-photon excitation [4] | δu (800 nm) uncaging action cross-section for two-photon excitation [4] | Qu1 Quantum efficiency for uncaging with one-photon excitation (measured at 515 nm) [1, 6] | εQu1 One-photon action cross section (ε and Qu1 measured at 515 nm) [1, 6] | ε Molar Absorptivity (measured at 515 nm) [2, 6] | Lifetime of triplet state through which solvolysis occurs [5]
NC(CCC(=O)OC(C(=O)O)c1ccccc1[N+](=O)[O-])C(=O)O (stereo not drawn) [Compound 1, γ-(α-carboxy-2-nitrobenzyl)glutamate, trifluoroacetate salt, reference compound] | 0.14 | 25 M⁻¹ cm⁻¹ | 180 M⁻¹ cm⁻¹ | less than 20% | – | – | – | – | – | – | – | – | – | – | – | – | – | –
COc1cc(COC(=O)CCC(N)C(=O)O)c([N+](=O)[O-])cc1OC (stereo not drawn) [Compound 2, reference compound] | 0.004 | 29 M⁻¹ cm⁻¹ | 7,300 M^−1cm^−1 | – | 1,570 M^−1cm^−1 | 345 nm | 8,860 M^−1cm^−1 | – | – | – | – | – | – | – | – | – | – | –
CC(=O)OCc1cc(=O)oc2cc(O)c(Cl)cc12 [Compound 4, 6-Chloro-7-hydroxycoumarin-4-ylmethyl acetate] | 0.019 | 302 M⁻¹ cm⁻¹ | 15,900 M^−1cm^−1 | – | 5,000 M^−1cm^−1 | 370 nm | 16,000 M^−1cm^−1 | 0.37 | 474 nm | 228 h | 9.68 ± 10^−50 cm^4s/photon | 1.07 ± 10^−50 cm^4s/photon | 3.22 ± 10^−50 cm^4s/photon | 0.34 ± 10^−50 cm^4s/photon | – | – | – | –
CC(=O)OCc1cc(=O)oc2cc(O)c(Br)cc12 [Compound 5, 6-Bromo-7-hydroxycoumarin-4-ylmethyl acetate] | 0.037 | 548 M⁻¹ cm⁻¹ | 14,800 M^−1cm^−1 | – | 5,000 M^−1cm^−1 | 370 nm | 15,000 M^−1cm^−1 | 0.22 | 474 nm | 183 h | 4.24 ± 10^−50 cm^4s/photon | 1.99 ± 10^−50 cm^4s/photon | 1.41 ± 10^−50 cm^4s/photon | 0.42 ± 10^−50 cm^4s/photon | – | – | – | –
CC(=O)OCc1c(Br)c(=O)oc2c(Br)c(O)c(Br)cc12 [Compound 6, 3,6,8-Tribromo-7-hydroxycoumarin-4-ylmethyl acetate] | 0.065 | 630 M⁻¹ cm⁻¹ | 9,700 M^−1cm^−1 | – | 15,700 M^−1cm^−1 | 397 nm | 15,900 M^−1cm^−1 | 0.16 | 498 nm | 218 h | – | 0.96 ± 10^−50 cm^4s/photon | – | 3.1 ± 10^−50 cm^4s/photon | – | – | – | –
N[C@@H](CCC(=O)OCc1cc(=O)oc2cc(O)c(Br)cc12)C(=O)O [Compound 8, γ-(6-Bromo-7-hydroxycoumarin-4-yl)methyl glutamate] | 0.019 | 364 M⁻¹ cm⁻¹ | 19,200 M^−1cm^−1 | – | 7,560 M^−1cm^−1 | 369 nm | 19,550 M^−1cm^−1 | – | – | – | – | 0.89 ± 10^−50 cm^4s/photon | – | 0.42 ± 10^−50 cm^4s/photon | – | – | – | –
O=c1ccc2c(CCl)c3ccc(O)cc3oc-2c1 [Compound 9] | – | – | – | – | – | – | – | – | 538 nm | – | – | 1.6 10^−50 cm^4s/photon | 68 10^−50 cm^4s/photon | 2.6 10^−50 cm^4s/photon | 0.038 | 1,565 M^−1cm^−1 | 41,200 M^−1cm^−1 | –
CCOP(=O)(OCC)OCc1cc(=O)oc2cc(O)c(Br)cc12 [Compound 23, 6-Bromo-7-hydroxycoumarin-4-ylmethyl diethylphosphate] | – | – | – | – | – | – | – | – | – | – | – | – | – | – | – | – | – | about 1 μs
